Assay results taken from patent US10653806B2, “Homomultivalent and heteromultivalent inhibitors of prostate specific membrane antigen (PSMA) and uses thereof” (THE JOHNS HOPKINS UNIVERSITY, priority 2011, dated 2020).

Columns and labels:
PSMA = target: T1, PSMA (Homo sapiens, UniProt Q04609); experiment: fluorescence-based PSMA inhibition assay (NAAG hydrolysis, LNCaP cell lysates, Amplex Red); type: biochemical; settings: for Ki: PSMA inhibitory activity, Cheng-Prusoff conversion
T1 construct: endogenous in cells; host or cells: LNCaP cell lysate
Procedure: PSMA Inhibition. […] Briefly, lysates of LNCaP cell extracts (25 μL) were incubated with the inhibitor (12.5 μL) in the presence of 4 μM NAAG (12.5 μL) for 120 min. The amount of glutamate released upon hydrolysis of NAAG was measured by incubating with a working solution (50 μL) of the Amplex Red Glutamic Acid Kit (Life Technologies, Grand Island, N.Y.) for 60 min. Fluorescence was measured with a VICTOR3V multilabel plate reader (Perkin Elmer Inc., Waltham, Mass.) with excitation at 530 nm and emission at 560 nm. […] Assays were performed in triplicate. Enzyme inhibitory constants (Ki values) were generated using the Cheng-Prusoff conversion. Data analysis was performed using GraphPad Prism version 4.00 for Windows (GraphPad Software, San Diego, Calif.).
PSMA inhibition constant (Ki) values for 1-3 were determined using a fluorescence-based PSMA inhibition assay.

[1] = test system: PSMA+PIP and PSMA-flu tumors in a male SCID mouse; settings: 44.4 MBq (1.2 mCi) intravenously, imaged repeatedly over an eight day period

T1 sequence (Q04609 whole entry): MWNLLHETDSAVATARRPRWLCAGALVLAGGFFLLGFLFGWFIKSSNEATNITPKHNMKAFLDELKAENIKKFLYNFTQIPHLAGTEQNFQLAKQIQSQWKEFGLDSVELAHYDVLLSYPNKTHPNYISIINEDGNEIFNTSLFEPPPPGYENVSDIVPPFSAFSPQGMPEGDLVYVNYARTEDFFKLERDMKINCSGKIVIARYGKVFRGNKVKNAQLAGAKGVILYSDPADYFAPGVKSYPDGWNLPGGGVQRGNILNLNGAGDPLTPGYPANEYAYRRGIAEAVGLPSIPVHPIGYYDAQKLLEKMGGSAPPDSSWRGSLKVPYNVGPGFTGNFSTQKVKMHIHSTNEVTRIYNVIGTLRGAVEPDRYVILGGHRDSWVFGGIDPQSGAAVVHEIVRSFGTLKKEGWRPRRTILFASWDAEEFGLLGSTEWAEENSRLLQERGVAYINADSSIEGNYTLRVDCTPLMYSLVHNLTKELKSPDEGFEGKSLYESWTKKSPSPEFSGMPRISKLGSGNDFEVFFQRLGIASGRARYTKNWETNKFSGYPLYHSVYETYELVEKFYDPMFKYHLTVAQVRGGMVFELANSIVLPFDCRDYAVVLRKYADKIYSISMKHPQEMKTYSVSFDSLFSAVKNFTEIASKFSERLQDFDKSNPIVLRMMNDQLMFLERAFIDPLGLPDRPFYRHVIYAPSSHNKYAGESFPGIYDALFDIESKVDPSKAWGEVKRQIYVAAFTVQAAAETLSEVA

NCCCCC(NC(=O)C(CCCCNC(=O)c1cn(CCCCC(NC(=O)CCCCCCC(=O)NCCCC[C@H](NC(=O)NC(CCC(=O)O)C(=O)O)C(=O)O)C(=O)O)nn1)NC(=O)c1nn[nH]c1CCCCC(NC(=O)CCCCCCC(=O)NCCCC[C@H](NC(=O)NC(CCC(=O)O)C(=O)O)C(=O)O)C(=O)O)C(=O)O (stereo partly drawn) [Compound 2, (7S)-26-(4-((1-((5-amino-1-carboxypenty 1)amino)-1-oxo-6-(1-((7S)-1,3,7,22-tetracarboxy-5,13,20-trioxo-4,6,12,21-tetraazahexacosan-26-yl) 1H-1,2,3-triazole-4-carboxamido)hexan-2-yl)carbamoyl)-1H-1,2,3-triazol-5-yl)-5,13,20-trioxo-4,6,12,21-tetraazahexacosane-1,3,7,22-tetracarboxylic acid]
Ki (PSMA): 0.1 nM | increase in binding affinity (Ki) compared to monovalent 1 (PSMA; relative to compound 1): 5 fold

O=C(O)CCC(NC(=O)N[C@@H](CCCCNC(=O)CCCCCCC(=O)NC(CCCCc1[nH]nnc1C(=O)NC(CCCCNC(=O)c1cn(CCCCC(NC(=O)CCCCCCC(=O)NCCCC[C@H](NC(=O)NC(CCC(=O)O)C(=O)O)C(=O)O)C(=O)O)nn1)C(=O)NC(CCCCNC(=O)CN1CCN(CC(=O)O)CCN(CC(=O)O)CCN(CC(=O)O)CC1)C(=O)O)C(=O)O)C(=O)O)C(=O)O (stereo partly drawn) [Compound 3, (7S)-26-(4-((1-((1-carboxy-5-(2-(4,7,10-tris(carboxymethyl)-1,4,7,10-tetraazacyclododecan-1-yl)acetamido)pentyl)amino)-1-oxo-6-(1-((7 S)-1,3,7,22-tetracarboxy-5,13,20-trioxo-4,6,12,21-tetraazahexacosan-26-yl)-1H-1,2,3-triazole-4-carboxamido)hexan-2-yl)carbamoyl)-1H-1,2,3-triazol-5-yl)-5,13,20-trioxo-4,6,12,21-tetraazahexacosane-1,3,7,22-tetracarboxylic acid]
Ki (PSMA): 0.08 nM

O=C(O)CC[C@H](NC(=O)N[C@@H](CCCCNC(=O)CCCCCCC(=O)NC(CCCCn1cc(C(=O)NCCCCC(NC(=O)c2cn(CCCCC(NC(=O)CCCCCCC(=O)NCCCC[C@H](NC(=O)N[C@@H](CCC(=O)O)C(=O)O)C(=O)O)C(=O)O)nn2)C(=O)NC(CCCCNC(=O)CN2CCN(CC(=O)O)CCN(CC(=O)O)CCN(CC(=O)O)CC2)C(=O)O)nn1)C(=O)O)C(=O)O)C(=O)O.[111In+3] (stereo partly shown) [[^111In]3]
radiotracer uptake on SPECT-CT [1]: Intense radiotracer uptake was seen only in the PSMA+PIP tumors and in the kidneys
